{"source": "patent US20090162351A1", "about": "“Transdiscal administration of inhibitors of p38 MAP kinase” (DePuy Spine, Inc., priority 2007, published 2009)", "test_system": "injured bovine articular cartilage explants in inflammatory medium", "assay": "Drop tower model: GAG degradation in injured cartilage explants", "format": "cell-based", "set-up": "inhibition of GAG release vs no treatment explant: dose or concentration left out as unconfirmed", "details": "for Inhibition of GAG degradation (in words): Table 4, injured cartilage explants, inflammatory conditions; for efficacy in inhibiting GAG release (in words): drop tower model; for Inhibition of GAG degradation: at 0.1-1 μM", "source_text": "In order to assess cartilage breakdown by inflammatory mediators and the effect of antagonists on those mediators, a cartilage impact model (the “drop tower model”) was established using a drop tower device to apply a peak compressive stress to a cartilage sample of about 20-30 MPa over an area of about 11-15 mm^2. Advantages of this model included its clinical relevance due to its potential to mimic several key parameters of osteoarthritis such as inflammatory cell mediators (by co-culturing with inflammatory cells), and induction of trauma to create the cartilage damage.\nIn the “drop tower design model” cartilage explants were first injured and then cultured in inflammatory medium to mimic the progression of joint impact trauma linked to cartilage degeneration and osteoarthritis. The approach of the model is to artificially produce cellular damage without gross structural alterations, and to determine how the cells respond to such an insult over the ensuing days when treated with or without potential therapeutic agents.\nThe device comprises a vertical rail that guides a sliding weight from 0.1 kg to 3 kg directly onto a force transducer which is situated at the bottom of the device. A sphere-shaped 2 mm indenter resting on a specimen is located at the bottom of the vertical rail. The indenter is held by a stop screw. The specimen is rigidly attached to a tissue holder underneath the indenter, to avoid side movements, the specimen is rigidly attached to the tissue holder. In this manner, the force transducer transduces a force indirectly onto the specimen. Adjusting the weight of a mass and height from which the mass drops varies the magnitude of the intended impact. For example, a weight mass (e.g., […]) held by a weight holder can be released from a height of e.g., 36 cm and dropped onto the force transducer.\nSamples for compound evaluation were tested using either of two different methods to induce inflammatory conditions. One method utilized media conditioned from peripheral blood mononuclear cells (PBMCs) stimulated with LPS (“+LPS”) or non-inflammatory media without LPS (“−LPS”). Another method utilized the absence or presence of a cocktail of cytokines.\nIn the first method, bovine or human PBMCs were freshly prepared using Ficoll gradient by Lampire Biological Laboratories, Inc. PBMCs in RPMI w/10% FCS at delivery were spun down at 1500 rpm for twenty minutes and the cell pellet was washed twice with 1×PBS to wash off the residual Ficoll. The cells were then resuspended at a density of 1×10^6/ml in RPMI supplemented with 10% FCS, 1× Antibiotics-Antimycotics. The suspension was divided into two aliquots. One aliquot was stimulated with 10 μg/ml of LPS and the other was not stimulated. Both aliquots were then incubated at 37° C., 5% CO2 for twenty-four to seventy-two hours. The conditioned media with or without LPS stimulation are collected, aliquoted, and stored in −80° C. for a maximum of three months. Each conditioned medium was assessed for levels of pro-inflammatory cytokines to ensure their secretion from PBMC. A representative cytokine, IL-6, was assayed by ELISA using a Human IL-6 Quantikine kit and it was shown that the LPS-stimulated medium had at least 10 ng/ml of IL-6, while IL-6 was undetectable in the unstimulated medium.\nIn the second method, the explants were cultured at 37° C., 5% CO2 either in stimulated or non-stimulated conditioned medium as described above or in defined medium containing DMEM supplemented with 1% FCS, 1× insulin-transferrin-sodium selenite media supplement and Antibiotics-Antimycotics in the presence or absence of a cocktail of cytokines containing 10 ng/ml of IL-1β, 100 ng/ml of TNFα and 5 ng/ml of IFN-γ. The compounds were solubilized in H2O, Ethanol or DMSO (10^−2 M) according to suppliers' instructions and further diluted with either conditioned medium stimulated with or without LPS to the required concentrations. DMSO concentrations in the culture media never exceeded 1%. […]", "key": {"[1]": {"details": "Bos taurus, injured cartilage explants"}}, "data": [{"smiles": "CC(=O)Oc1cccc2c1C(=O)c1c(OC(C)=O)cc(C(=O)O)cc1C2=O", "note": "[Diacerein, reference compound]", "values": [{"measurement": "inhibition at 54 µM", "setting": "Bos taurus, at 54 μM, injured cartilage explants", "value": 100, "unit": "%"}, {"measurement": "proteoglycan degradation in injured cartilage induced by inflammatory mediators (in words)", "setting": "at high dosage, LPS-stimulated PBMC conditioned medium, five days", "value": "completely inhibited"}]}, {"smiles": "OCCC#Cc1nc(-c2ccc(F)cc2)c(-c2ccncc2)n1CCCc1ccccc1", "note": "[JNJ 3026582 (RWJ 67657), 4-[4-(4-fluorophenyl)-1-(3-phenylpropyl)-5-(4-pyridinyl)-1H-imidazol-2-yl]-3-butyn-1-ol]", "values": [{"measurement": "Inhibition of GAG degradation (in words)", "value": "little"}, {"measurement": "efficacy in inhibiting GAG release (in words)", "value": "little efficacy"}]}, {"smiles": "C[C@H](Nc1nccc(-c2c(-c3ccc(F)cc3)nc3nc(N)ccn23)n1)c1ccccc1", "note": "[JNJ 7583979 (RWJ 351958)]", "values": [{"measurement": "Inhibition of GAG degradation (in words)", "value": "little"}, {"measurement": "efficacy in inhibiting GAG release (in words)", "value": "little efficacy"}]}, {"smiles": "CO[C@H]1C[C@@H]2CC[C@@H](C)[C@@](O)(O2)C(=O)C(=O)N2CCCC[C@H]2C(=O)O[C@H]([C@H](C)C[C@@H]2CC[C@@H](O)[C@H](OC)C2)CC(=O)[C@H](C)/C=C(\\C)[C@@H](O)[C@@H](OC)C(=O)[C@H](C)C[C@H](C)/C=C/C=C/C=C/1C", "note": "[Rapamycin, reference compound]", "values": [{"measurement": "Inhibition of GAG degradation", "setting": "injured cartilage explants", "value": 100, "unit": "% inh at 0.1-1 μM"}, {"measurement": "inhibition of GAG release vs no treatment explant", "setting": "five days", "value": "~84", "unit": "%"}]}, {"smiles": "O=C(O)c1cc(O)c2c(c1)C(=O)c1cccc(O)c1C2=O", "note": "[Rhein, reference compound]", "values": [{"measurement": "inhibition at 35 µM", "setting": "Bos taurus, at 35 μM, injured cartilage explants", "value": 100, "unit": "%"}]}, {"smiles": "CC(C(=O)O)c1ccc(C(=O)c2cccs2)cc1", "note": "(stereo not drawn) [Suprofen, reference compound]", "values": [{"measurement": "Inhibition of GAG degradation", "setting": "injured cartilage explants", "value": 100, "unit": "% inh at 0.1-1 μM"}]}, {"smiles": "COc1ccc(-n2nc(CCC(=O)N(C)O)cc2-c2ccc(Cl)cc2)cc1", "note": "[Tepoxalin, reference compound]", "values": [{"measurement": "inhibition at 10 µM", "setting": "[1]", "value": 100, "unit": "%"}]}, {"smiles": "Cc1ccc(C(=O)c2ccc(CC(=O)O)n2C)cc1", "note": "[Tolmetin, reference compound]", "values": [{"measurement": "inhibition at 10 µM", "setting": "[1]", "value": 60, "unit": "%"}]}]}
